# Assay results from US10358446B2, “Bruton's tyrosine kinase inhibitors” (Zibo Biopolar Changsheng Pharmaceutical Co. Ltd., priority 2015, dated 2019).
# Molecular target: BTK (Homo sapiens (Human), UniProt Q06187)
# Test: Btk kinase assay (HTRF)
# Format: biochemical
# Conditions: [ATP]=80 μM, BTK=3.4 nM; read-out: BTK Inhibition
# Procedure, shortened: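 HTRF kinase read-out (665/615 nm ratio, excitation 330 nm) after EDTA quench and 1 h detection incubation. Reaction: 3.4 nM BTK, ATP 80 μM, peptide substrate 1 μM, compound, HEPES pH 7.0 buffer, 1 h; IC50 derived using uninhibited and enzyme-free controls.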
# Chain of BTK (Q06187 whole entry, species assumed): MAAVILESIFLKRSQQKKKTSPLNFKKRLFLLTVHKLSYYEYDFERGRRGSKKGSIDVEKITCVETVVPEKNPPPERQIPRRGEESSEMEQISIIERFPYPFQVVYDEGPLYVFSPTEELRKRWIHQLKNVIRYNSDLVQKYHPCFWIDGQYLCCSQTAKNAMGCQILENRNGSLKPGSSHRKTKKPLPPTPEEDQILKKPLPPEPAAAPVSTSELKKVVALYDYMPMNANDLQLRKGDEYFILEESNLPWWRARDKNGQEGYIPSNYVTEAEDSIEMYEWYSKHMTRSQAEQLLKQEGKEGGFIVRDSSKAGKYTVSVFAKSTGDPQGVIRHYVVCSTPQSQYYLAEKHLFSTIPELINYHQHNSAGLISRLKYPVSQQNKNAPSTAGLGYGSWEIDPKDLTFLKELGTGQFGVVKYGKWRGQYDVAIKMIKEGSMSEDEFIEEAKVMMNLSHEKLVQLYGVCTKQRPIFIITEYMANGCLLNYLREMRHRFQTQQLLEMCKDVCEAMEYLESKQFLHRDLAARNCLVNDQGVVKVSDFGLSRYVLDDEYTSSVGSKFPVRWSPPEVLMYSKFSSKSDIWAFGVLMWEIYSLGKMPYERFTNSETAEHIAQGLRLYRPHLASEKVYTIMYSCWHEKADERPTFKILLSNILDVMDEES
row,IC50 [nM],Compound
1,1000 to 10000,"C=C(C)C(=O)N1CC[C@@H](n2c(=O)n(-c3cccc(Oc4ccccc4)c3)c3cnccc32)C1 [Example 156, (R)-1-(1-methacryloylpyrrolidin-3-yl)-3-(3-phenoxyphenyl)-1H-imidazo[4,5-c]pyridin-2(3H)-one]"
2,100 to 1000,"C=CC(=O)N1CC[C@@H](n2c(=O)n(-c3ccc(Oc4cccc(OC(C)C)c4)c(F)c3)c3cnccc32)C1 [Example 52, (R)-1-(1-acryloylpyrrolidin-3-yl)-3-(3-fluoro-4-(3-isopropoxyphenoxy)phenyl)-1H-imidazo[4,5-c]pyridin-2(3H)-one]"
3,10 to 100,"C=CC(=O)Nc1cccc(-n2c(=O)n(-c3cccc(Oc4ccccc4C)c3)c3cnccc32)c1 [Example 88, N-(3-(2-oxo-3-(3-(o-tolyloxy)phenyl)-2,3-dihydro-1H-imidazo[4,5-c]pyridin-1-yl)phenyl)acrylamide]"
4,10 to 100,"C=CC(=O)N1CC[C@@H](n2c(=O)n(-c3ccc(Oc4cccc(F)c4)c(F)c3)c3cnccc32)C1 [Example 77, (R)-1-(1-acryloylpyrrolidin-3-yl)-3-(3-fluoro-4-(3-fluorophenoxy)phenyl)-1H-imidazo[4,5-c]pyridin-2(3H)-one]"
5,10 to 100,"C=CC(=O)Nc1cccc(-n2c(=O)n(-c3ccc(Oc4cccc(F)c4OC)cc3)c3cnccc32)c1 [Example 136, N-(3-(3-(4-(3-fluoro-2-methoxyphenoxy)phenyl)-2-oxo-2,3-dihydro-1H-imidazo[4,5-c]pyridin-1-yl)phenyl)acrylamide]"
6,100 to 1000,"C=CC(=O)Nc1cccc(-n2c(=O)n(-c3ccc(Oc4cc(Cl)cc(Cl)c4)cc3)c3cnccc32)c1 [Example 130, N-(3-(3-(4-(3,5-dichlorophenoxy)phenyl)-2-oxo-2,3-dihydro-1H-imidazo[4,5-c]pyridin-1-yl)phenyl)acrylamide]"
7,100 to 1000,"C=CC(=O)N1CC[C@@H](n2c(=O)n(-c3ccc(Oc4ccc(Cl)cc4)cc3)c3cnccc32)C1 [Example 82, (R)-1-(1-acryloylpyrrolidin-3-yl)-3-(4-(4-chlorophenoxy)phenyl)-1H-imidazo[4,5-c]pyridin-2(3H)-one]"
8,10 to 100,"C=CC(=O)Nc1cccc(-n2c(=O)n(-c3ccc(OCc4ccc(F)cc4)cc3)c3cnccc32)c1 [Example 247, N-(3-(3-(4-((4-fluorobenzyl)oxy)phenyl)-2-oxo-2,3-dihydro-1H-imidazo[4,5-c]pyridin-1-yl)phenyl)acrylamide]"
9,10 to 100,"C=CC(=O)Nc1cccc(-n2c(=O)n(-c3ccc(Oc4cccc(C(C)C)c4)cc3)c3cnccc32)c1 [Example 114, N-(3-(3-(4-(3-isopropylphenoxy)phenyl)-2-oxo-2,3-dihydro-1H-imidazo[4,5-c]pyridin-1-yl)phenyl)acrylamide]"
10,1000 to 10000,"C=CC(=O)Nc1cccc(-n2c(=O)n(-c3ccc(Oc4ccc(C(F)(F)F)cc4)c(Cl)c3)c3cnccc32)c1 [Example 111, N-(3-(3-(3-chloro-4-(4-(trifluoromethyl)phenoxy)phenyl)-2-oxo-2,3-dihydro-1H-imidazo[4,5-c]pyridin-1-yl)phenyl)acrylamide]"
11,10 to 100,"C=CC(=O)N1CC[C@@H](n2c(=O)n(-c3ccc(OCc4ccc(F)c(F)c4)c(Cl)c3)c3cnccc32)C1 [Example 201, (R)-1-(1-acryloylpyrrolidin-3-yl)-3-(3-chloro-4-((3,4-difluorobenzyl)oxy)phenyl)-1H-imidazo[4,5-c]pyridine-2(3H)-one]"
12,10 to 100,"C=CC(=O)Nc1cccc(-n2c(=O)n(-c3ccc(OCc4cccc(F)c4)cc3)c3cnccc32)c1 [Example 222, N-(3-(3-(4-((3-fluorobenzyl)oxy)phenyl)-2-oxo-2,3-dihydro-1H-imidazo[4,5-c]pyridin-1-yl)phenyl)acrylamide]"
13,10 to 100,"C=CC(=O)N1CC[C@@H](n2c(=O)n(-c3ccc(Oc4cccc(C)c4OC)cc3)c3cnccc32)C1 [Example 67, (R)-1-(1-acryloylpyrrolidin-3-yl)-3-(4-(2-methoxy-3-methylphenoxy)phenyl)-1H-imidazo[4,5-c]pyridin-2(3H)-one]"
14,10 to 100,"C=CC(=O)Nc1cccc(-n2c(=O)n(-c3ccc(C4CC4)cc3)c3cnccc32)c1 [Example 278, N-(3-(3-(4-cyclopropylphenyl)-2-oxo-2,3-dihydro-1H-imidazo[4,5-c]pyridin-1-yl)phenyl)acrylamide]"
15,1000 to 10000,"C=CC(=O)Nc1cccc(-n2c(=O)n(-c3ccc(-c4ccc(C)cc4)cc3)c3cnccc32)c1 [Example 276, N-(3-(3-(4′-methyl-[1,1′-biphenyl]-4-yl)-2-oxo-2,3-dihydro-1H-imidazo[4,5-c]pyridin-1-yl)phenyl)acrylamide]"
16,10 to 100,"C=CC(=O)Nc1cccc(-n2c(=O)n(-c3ccc(Oc4cccc(F)c4C)cc3)c3cnccc32)c1 [Example 79, N-(3-(3-(4-(3-fluoro-2-methylphenoxy)phenyl)-2-oxo-2,3-dihydro-1H-imidazo[4,5-c]pyridin-1-yl)phenyl)acrylamide]"

# Further lines, the compound ahead of its results:
row,Compound,IC50 [nM]
1,"C=CC(=O)Nc1cccc(-n2c(=O)n(-c3ccc(NC(=O)c4cccc(Cl)c4)cc3)c3cnccc32)c1 [Example 259, N-(4-(1-(3-acrylamidophenyl)-2-oxo-1H-imidazo[4,5-c]pyridin-3(2H)-yl)phenyl)-3-chlorobenzamide]",100 to 1000
2,"C=CC(=O)Nc1cccc(-n2c(=O)n(-c3ccc(-c4ccccc4)cc3)c3cnccc32)c1 [Example 271, N-(3-(3-([1,1′-biphenyl]-4-yl)-2-oxo-2,3-dihydro-1H-imidazo[4,5-c]pyridin-1-yl)phenyl)acrylamide]",10 to 100
3,"C=CC(=O)N1CCC[C@@H](n2c(=O)n(-c3ccc(Oc4ccccc4)c(F)c3)c3cnccc32)C1 [Example 12, (R)-1-(1-acryloylpiperidin-3-yl)-3-(3-fluoro-4-phenoxyphenyl)-1H-imidazo[4,5-c]pyridin-2(3H)-one]",10 to 100
4,"C=CC(=O)Nc1cccc(-n2c(=O)n(-c3ccc(Oc4cccc(OC)c4)cc3)c3cnccc32)c1 [Example 158, N-(3-(3-(4-(3-methoxyphenoxy)phenyl)-2-oxo-2,3-dihydro-1H-imidazo[4,5-c]pyridin-1-yl)phenyl) acrylamide]",10 to 100
5,"C=CC(=O)Nc1cccc(-n2c(=O)n(-c3ccc(OCc4c(F)cccc4F)cc3)c3cnccc32)c1 [Example 226, N-(3-(3-(4-((2,6-difluorobenzyl)oxy)phenyl)-2-oxo-2,3-dihydro-1H-imidazo[4,5-c]pyridin-1-yl)phenyl)acrylamide]",100 to 1000
6,"C=CC(=O)N1CC[C@@H](n2c(=O)n(-c3ccc(Oc4ccccc4)cc3)c3cnccc32)C1 [Example 33, (R)-1-(1-acryloylpyrrolidin-3-yl)-3-(4-phenoxyphenyl)-1H-imidazo[4,5-c]pyridin-2(3H)-one]",10 to 100
7,"C=CC(=O)Nc1cccc(-n2c(=O)n(-c3ccc(NC(=O)c4ccc(OC)cc4)cc3)c3cnccc32)c1 [Example 264, N-(4-(1-(3-acrylamidophenyl)-2-oxo-1H-imidazo[4,5-c]pyridin-3(2H)-yl)phenyl)-4-methoxybenzamidee]",100 to 1000
8,"CN(C(=O)/C=C/CN(C)C1CC1)c1cccc(-n2c(=O)n(-c3ccc(Oc4ccccc4)cc3)c3c(N)ncnc32)c1 [Example 174, (E)-N-(3-(6-amino-8-oxo-7-(4-phenoxyphenyl)-7H-purin-9(8H)-yl)phenyl)-4-(cyclopropyl(methyl)amino)-N-methylbut-2-enamide]",10 to 100
9,"C=CC(=O)Nc1cccc(-n2c(=O)n(-c3ccc(Oc4ccc(F)c(F)c4)cc3)c3cnccc32)c1 [Example 126, N-(3-(3-(4-(3,4-difluorophenoxy)phenyl)-2-oxo-2,3-dihydro-1H-imidazo[4,5-c]pyridin-1-yl)phenyl)acrylamide]",100 to 1000
10,"C=CC(=O)N1CCC[C@@H](n2c(=O)n(-c3ccc(Oc4cccc(C)c4)cc3)c3cnccc32)C1 [Example 13, (R)-1-(1-acryloylpiperidin-3-yl)-3-(4-(m-tolyloxy)phenyl)-1H-imidazo[4,5-c]pyridin-2(3H)-one]",10 to 100
11,"C=CC(=O)Nc1cccc(-n2c(=O)n(-c3ccc(OCc4c(F)cccc4F)c(F)c3)c3cnccc32)c1 [Example 227, N-(3-(3-(4-((2,6-difluorobenzyl)oxy)-3-fluorophenyl)-2-oxo-2,3-dihydro-1H-imidazo[4,5-c]pyridin-1-yl)phenyl)acrylamide]",100 to 1000
12,"C=CC(=O)Nc1cccc(-n2c(=O)n(-c3ccc(OCc4ccc(Cl)cc4Cl)cc3)c3cnccc32)c1 [Example 229, N-(3-(3-(4-((2,4-dichlorobenzyl)oxy)phenyl)-2-oxo-2,3-dihydro-1H-imidazo[4,5-c]pyridin-1-yl)phenyl)acrylamide]",10 to 100
13,"C=CC(=O)N1CCC[C@@H](n2c(=O)n(-c3ccc(Oc4cccc(F)c4F)cc3)c3cnccc32)C1 [Example 61, (R)-1-(1-acryloylpiperidin-3-yl)-3-(4-(2,3-difluorophenoxy)phenyl)-1H-imidazo[4,5-c]pyridin-2(3H)-one]",10 to 100
14,"C=CC(=O)Nc1cccc(-n2c(=O)n(-c3ccc(Oc4cccc(OC(C)C)c4)c(F)c3)c3cnccc32)c1 [Example 48, N-(3-(3-(3-fluoro-4-(3-isopropoxyphenoxy)phenyl)-2-oxo-2,3-dihydro-1H-imidazo[4,5-c]pyridin-1-yl)phenyl)acrylamide]",10 to 100
15,"C=CC(=O)N1CC[C@@H](n2c(=O)n(-c3ccc(Oc4ccccc4)cc3)c3cccnc32)C1 [Example 120, (R)-3-(1-acryloylpyrrolidin-3-yl)-1-(4-phenoxyphenyl)-1H-imidazo[4,5-b]pyridin-2(3H)-one]",1000 to 10000
16,C=CC(=O)N1CC[C@@H](n2c(=O)n(-c3ccc(-c4ccc(Cl)cc4Cl)cc3)c3cnccc32)C1 [Example 275],≥ 10000
17,"O=C(/C=C/c1ccccc1)Nc1cccc(-n2c(=O)n(-c3ccc(Oc4ccccc4)cc3)c3cnccc32)c1 [Example 109, N-(3-(2-oxo-3-(4-phenoxyphenyl)-2,3-dihydro-1H-imidazo[4,5-c]pyridin-1-yl)phenyl)cinnamamide]",≥ 10000
